Experimental data taken from ChEMBL document CHEMBL4354815, “Fibrinolysis Inhibitors: Potential Drugs for the Treatment and Prevention of Bleeding” (J Med Chem, 2020).
Where a SMILES comes first, the peptide text is derived from it. [ ]: non-standard residue; d: D form. Met(O2) = CS(=O)(=O)CC[C@H](N)C(=O)O

Key:
Plasminogen [1] = biological target: T1, Plasminogen (Homo sapiens, UniProt P00747); assay: Inhibition of human plasmin assessed as reduction in proteolysis activity in presence of fibrinogen after 90 mins by SDS-PAGE analysis
Plasminogen [2] = biological target: T1, Plasminogen; assay: Inhibition of human plasmin
Coagulation factor X [3] = biological target: T2, Coagulation factor X (Homo sapiens, UniProt P00742); assay: Inhibition of human factor 10a (unknown origin) assessed as reduction in hydrolysis activity preincubated for 10 mins followed by spectrozyme FXa
T2 sequence (P00742 41-179 limits assumed): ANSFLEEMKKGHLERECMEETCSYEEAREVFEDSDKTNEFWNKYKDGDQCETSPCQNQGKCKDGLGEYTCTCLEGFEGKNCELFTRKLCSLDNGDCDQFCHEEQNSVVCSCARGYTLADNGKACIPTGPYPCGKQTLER
T2 sequence (P00742 235-488 limits assumed): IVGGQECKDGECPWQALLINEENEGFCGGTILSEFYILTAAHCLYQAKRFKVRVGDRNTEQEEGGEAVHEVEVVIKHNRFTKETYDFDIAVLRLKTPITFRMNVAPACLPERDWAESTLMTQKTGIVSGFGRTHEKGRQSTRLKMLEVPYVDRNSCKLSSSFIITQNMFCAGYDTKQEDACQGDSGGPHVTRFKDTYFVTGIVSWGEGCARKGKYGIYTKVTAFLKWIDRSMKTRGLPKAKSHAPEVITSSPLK

Prothrombin [4] = biological target: T3, Prothrombin (Homo sapiens, UniProt P00734); assay: Inhibition of thrombin (unknown origin) assessed as reduction in hydrolysis activity preincubated for 10 mins followed by spectrozyme TH
[5] = biological target: T4, Urokinase-type plasminogen activator (Homo sapiens, UniProt P00749); assay: Inhibition of human urokinase-type plasminogen activator using S-2444 as substrate
Blood = assay: Anti-fibrinolytic activity in human whole blood assessed as reduction in clot lysis incubated for 5 mins in presence of tissue-type plasminogen activator by rotational thromboelastometry; assay type: functional, tissue-based
Plasminogen [6] = biological target: T1, Plasminogen; assay: Inhibition of plasmin (unknown origin) using D-Val-Leu-Lys-p-nitroanilide as substrate
[7] = Initial serum concentration in human at 100 mg/kg, iv; assay type: ADME, organism-based
[8] = Drug level in human serum at 100 mg/kg, iv measured after 3 to 4 hrs; assay type: ADME, organism-based; settings: in vivo
[9] = Plasma concentration in human at 100 mg/kg, po measured within 2 to 3 hrs; assay type: ADME, organism-based; settings: in vivo
[10] = Half life in human; assay type: ADME
[11] = biological target: Vitamin K-dependent protein C (Homo sapiens, UniProt P04070); assay: Inhibition of human activated protein […] C using H-D-Lys(Cbo)-Pro-Arg-pNA as substrate
Vitamin K-dependent protein C, sequence (P04070 43-197 limits assumed): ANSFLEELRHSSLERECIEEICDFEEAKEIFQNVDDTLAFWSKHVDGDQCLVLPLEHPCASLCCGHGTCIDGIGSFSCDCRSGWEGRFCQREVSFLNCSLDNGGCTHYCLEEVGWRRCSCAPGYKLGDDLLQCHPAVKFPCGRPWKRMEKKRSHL
Vitamin K-dependent protein C, sequence (P04070 212-461 limits assumed): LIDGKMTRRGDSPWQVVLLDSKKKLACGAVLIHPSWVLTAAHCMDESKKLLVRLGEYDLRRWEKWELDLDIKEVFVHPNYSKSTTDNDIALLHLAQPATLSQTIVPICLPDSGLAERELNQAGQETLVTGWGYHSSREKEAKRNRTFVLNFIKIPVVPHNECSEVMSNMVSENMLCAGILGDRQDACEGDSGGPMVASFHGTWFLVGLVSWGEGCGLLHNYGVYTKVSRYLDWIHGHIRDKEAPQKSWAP

Prothrombin [12] = biological target: T3, Prothrombin; assay: Inhibition of human factor 2a using Mes-d-Cha-Gly-Arg-pNA as substrate
[13] = biological target: T5, Complement C1s subcomponent (Homo sapiens, UniProt P09871); assay: Inhibition of human Complement C1s subcomponent using Val-Ser-Arg-pNA as substrate
T5 sequence (P09871 whole entry): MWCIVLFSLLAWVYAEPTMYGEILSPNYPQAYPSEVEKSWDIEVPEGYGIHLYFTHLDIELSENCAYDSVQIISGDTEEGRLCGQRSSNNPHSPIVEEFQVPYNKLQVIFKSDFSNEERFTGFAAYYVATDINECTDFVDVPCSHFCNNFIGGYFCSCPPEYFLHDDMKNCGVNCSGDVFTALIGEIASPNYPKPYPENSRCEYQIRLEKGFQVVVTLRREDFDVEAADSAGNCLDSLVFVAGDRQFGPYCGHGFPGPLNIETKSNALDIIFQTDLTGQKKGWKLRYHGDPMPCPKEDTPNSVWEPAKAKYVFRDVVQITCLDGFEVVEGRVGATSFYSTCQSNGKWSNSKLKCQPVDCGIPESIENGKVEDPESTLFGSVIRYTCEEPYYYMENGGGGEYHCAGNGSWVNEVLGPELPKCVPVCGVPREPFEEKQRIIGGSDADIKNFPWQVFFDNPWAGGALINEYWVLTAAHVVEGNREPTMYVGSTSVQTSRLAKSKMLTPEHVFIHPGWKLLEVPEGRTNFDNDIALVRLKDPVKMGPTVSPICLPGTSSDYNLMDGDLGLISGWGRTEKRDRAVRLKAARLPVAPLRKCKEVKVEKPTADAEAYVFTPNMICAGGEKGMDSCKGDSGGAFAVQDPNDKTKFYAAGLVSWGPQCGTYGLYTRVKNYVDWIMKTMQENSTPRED

Coagulation factor XII = biological target: T6, Coagulation factor XII (Homo sapiens, UniProt P00748); assay: Inhibition of human factor 12a using CHA-Gly-Arg- pNA as substrate
T6 sequence (P00748 whole entry): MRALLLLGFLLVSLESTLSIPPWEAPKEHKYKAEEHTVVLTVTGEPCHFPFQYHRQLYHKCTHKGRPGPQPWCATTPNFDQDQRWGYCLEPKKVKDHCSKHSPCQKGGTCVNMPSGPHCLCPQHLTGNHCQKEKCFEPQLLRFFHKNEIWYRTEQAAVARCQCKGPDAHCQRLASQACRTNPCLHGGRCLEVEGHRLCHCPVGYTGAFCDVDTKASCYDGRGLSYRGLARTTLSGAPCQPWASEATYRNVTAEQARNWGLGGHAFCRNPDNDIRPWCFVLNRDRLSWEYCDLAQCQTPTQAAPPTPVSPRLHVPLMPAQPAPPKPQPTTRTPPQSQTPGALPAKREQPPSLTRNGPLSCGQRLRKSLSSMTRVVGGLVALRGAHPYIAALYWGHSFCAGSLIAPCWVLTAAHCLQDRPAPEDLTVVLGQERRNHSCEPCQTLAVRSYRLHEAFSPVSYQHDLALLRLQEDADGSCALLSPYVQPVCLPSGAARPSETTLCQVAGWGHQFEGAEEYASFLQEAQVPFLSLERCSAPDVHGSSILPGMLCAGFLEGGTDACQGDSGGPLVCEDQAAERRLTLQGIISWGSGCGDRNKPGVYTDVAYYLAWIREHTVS

[14] = biological target: T7, Complement C1r subcomponent (Homo sapiens, UniProt P00736); assay: Inhibition of human Complement C1r subcomponent using Val-Ser-Arg-pNA as substrate
T7 sequence (P00736 whole entry): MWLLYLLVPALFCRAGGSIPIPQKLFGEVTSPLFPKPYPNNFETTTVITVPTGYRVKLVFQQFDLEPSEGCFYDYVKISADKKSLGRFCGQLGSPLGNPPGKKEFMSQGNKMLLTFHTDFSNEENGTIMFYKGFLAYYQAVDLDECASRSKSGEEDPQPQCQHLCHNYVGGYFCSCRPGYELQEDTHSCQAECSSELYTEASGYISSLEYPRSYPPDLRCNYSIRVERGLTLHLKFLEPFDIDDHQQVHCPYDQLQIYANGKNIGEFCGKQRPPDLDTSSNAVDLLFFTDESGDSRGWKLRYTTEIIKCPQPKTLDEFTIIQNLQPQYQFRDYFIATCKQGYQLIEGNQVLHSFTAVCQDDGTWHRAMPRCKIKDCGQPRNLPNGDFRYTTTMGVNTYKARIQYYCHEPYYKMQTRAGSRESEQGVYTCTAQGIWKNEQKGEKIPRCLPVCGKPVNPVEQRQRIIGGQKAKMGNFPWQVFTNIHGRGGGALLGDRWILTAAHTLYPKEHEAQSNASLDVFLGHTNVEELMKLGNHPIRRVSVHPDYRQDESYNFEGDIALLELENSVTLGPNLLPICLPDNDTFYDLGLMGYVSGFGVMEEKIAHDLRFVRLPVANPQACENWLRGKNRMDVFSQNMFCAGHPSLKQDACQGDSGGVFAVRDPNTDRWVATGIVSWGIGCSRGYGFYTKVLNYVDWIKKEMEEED

[15] = Inhibition of human urinary kallikrein using H-D-Val-Leu-Arg-pNA as substrate
Coagulation factor XI = Coagulation factor XI (Homo sapiens, UniProt P03951); assay: Inhibition of human factor 11a using H-D-Lys(Cbo)-Pro-Arg-pNA as substrate
Coagulation factor XI, sequence (P03951 19-387 limits assumed): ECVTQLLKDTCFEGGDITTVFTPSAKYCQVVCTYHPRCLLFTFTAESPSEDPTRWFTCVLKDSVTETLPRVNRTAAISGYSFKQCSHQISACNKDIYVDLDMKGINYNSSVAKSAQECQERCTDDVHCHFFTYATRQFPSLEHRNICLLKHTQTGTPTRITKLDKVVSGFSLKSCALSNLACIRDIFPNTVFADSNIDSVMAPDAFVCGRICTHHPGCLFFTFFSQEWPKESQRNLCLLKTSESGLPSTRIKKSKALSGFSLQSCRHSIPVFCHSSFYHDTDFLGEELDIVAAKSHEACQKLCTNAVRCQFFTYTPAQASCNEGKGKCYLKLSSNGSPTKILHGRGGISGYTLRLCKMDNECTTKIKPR
Coagulation factor XI, sequence (P03951 388-625 limits assumed): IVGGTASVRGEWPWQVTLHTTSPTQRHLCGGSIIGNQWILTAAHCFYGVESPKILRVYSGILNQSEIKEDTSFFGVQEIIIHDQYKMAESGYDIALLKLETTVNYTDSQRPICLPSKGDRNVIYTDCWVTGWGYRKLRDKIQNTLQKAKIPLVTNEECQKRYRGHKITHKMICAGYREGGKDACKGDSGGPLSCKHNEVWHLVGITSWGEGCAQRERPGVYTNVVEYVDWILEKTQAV

[16] = biological target: T8, Tissue-type plasminogen activator (Homo sapiens, UniProt P00750); assay: Inhibition of human tissue-type plasminogen activator using Mes-d-Cha- Gly-Arg-pNA as substrate
T8 sequence (P00750 whole entry): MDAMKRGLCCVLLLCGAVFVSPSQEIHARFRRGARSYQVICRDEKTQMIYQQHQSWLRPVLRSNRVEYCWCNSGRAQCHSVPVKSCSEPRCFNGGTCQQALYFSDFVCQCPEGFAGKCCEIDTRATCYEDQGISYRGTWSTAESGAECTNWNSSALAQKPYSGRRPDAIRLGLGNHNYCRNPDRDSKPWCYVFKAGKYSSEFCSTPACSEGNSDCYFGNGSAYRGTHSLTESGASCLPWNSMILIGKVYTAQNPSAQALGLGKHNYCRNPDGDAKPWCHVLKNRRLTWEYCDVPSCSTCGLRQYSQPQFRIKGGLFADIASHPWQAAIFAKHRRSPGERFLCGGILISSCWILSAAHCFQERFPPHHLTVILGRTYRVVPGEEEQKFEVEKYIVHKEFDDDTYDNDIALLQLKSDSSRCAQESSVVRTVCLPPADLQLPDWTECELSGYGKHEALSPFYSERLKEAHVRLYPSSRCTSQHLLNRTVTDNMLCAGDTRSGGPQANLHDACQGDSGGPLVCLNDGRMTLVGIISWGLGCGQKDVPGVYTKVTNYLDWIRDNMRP

Coagulation factor X [17] = biological target: T2, Coagulation factor X; assay: Inhibition of human factor 10a using MeOCO-d-Cha-Gly-Arg-pNA as substrate
Plasminogen [18] = biological target: T1, Plasminogen; assay: Inhibition of plasmin (unknown origin)
[19] = biological target: T8, Tissue-type plasminogen activator; assay: Inhibition of tissue-type plasminogen activator (unknown origin)
[20] = biological target: T4, Urokinase-type plasminogen activator; assay: Inhibition of urokinase-type plasminogen activator (unknown origin)
[21] = Half life in rat, iv; assay type: ADME; settings: in vivo
[22] = Half life in dog, iv; assay type: ADME, Canis lupus familiaris; settings: in vivo
[23] = Plasma concentration in human at 0.219 mg/kg/h by liquid chromatography-tandem mass spectrometry; assay type: ADME, organism-based; settings: in vivo
Plasminogen [24] = biological target: T1, Plasminogen; assay: Inhibition of plasmin (unknown origin) assessed as reduction in amidolytic activity using S-2251 as the substrate after 4 mins
Plasminogen [25] = biological target: T1, Plasminogen; assay: Inhibition of human plasmin assessed as reduction in fibrinolysis
Plasminogen [26] = biological target: T1, Plasminogen; assay: Inhibition of human plasmin using S-2251 as substrate after 30 mins by spectrophotometric method
Plasminogen [27] = biological target: T1, Plasminogen; assay: Competitive inhibition of human plasmin assessed as reduction in hydrolytic activity using S-2251 as substrate by spectrophotometric method
Plasminogen [28] = biological target: T1, Plasminogen; assay: Inhibition of human plasmin assessed as km using S-2251 as the substrate
[29] = compound: CC[C@@H](C)[C@@H](N)C(=O)N[C@@H](Cc1ccccc1)C(=O)N[C@@H](CCCCN)C(=O)Nc1ccc([N+](=O)[O-])cc1; assay: (§1) Inhibition of human plasmin assessed as km by Lineweaver-burk method
[30] = compound: NCCCC[C@H](NC(=O)[C@H](Cc1ccccc1)NC(=O)[C@@H]1CCC(=O)N1)C(=O)Nc1ccc([N+](=O)[O-])cc1; assay: as §1

CC(=O)N[C@@H](CCCCN)C(=O)N[C@@H](CCS(C)(=O)=O)C(=O)N[C@@H](Cc1ccc(O)cc1)C(=O)N[C@H](C=O)CCCNC(=N)N (Ac-K[Met(O2)]YR-aldehyde)
Ki (Plasminogen [1]): 0.0033 µM

N=C(N)c1cccc(C[C@H](NS(=O)(=O)c2ccc3ccccc3c2)C(=O)N2CCCC(C(=O)NCc3cccs3)C2)c1 (some centres undefined)
Ki (Plasminogen [2]): 0.14 µM

O=c1c(OS(=O)(=O)O)c(-c2ccc(OS(=O)(=O)O)c(OS(=O)(=O)O)c2)oc2cc(OS(=O)(=O)O)cc(OCc3cn(CCCCCCCCn4c(-c5ccc(OS(=O)(=O)O)cc5)nc5ccccc5c4=O)nn3)c12
IC50 (Coagulation factor X [3]): > 250 µM
IC50 (Prothrombin [4]): > 500 µM

NC[C@H]1CC[C@H](C(=O)O)CC1 [TRANEXAMIC ACID]
Ki [5]: 2000 µM
IC50 (Blood): 2.75 µM

O=C(CCC1CCCC(NC(=O)[C@H](Cc2c[nH]c3ccccc23)NC(=O)OCc2ccccc2)C1=O)N[C@@H](Cc1c[nH]c2ccccc12)C(=O)O (mixture of isomers)
Ki (Plasminogen [6]): 5 to 10 µM

NCCCCCC(=O)O [AMINOCAPROIC ACID]
C0 [7]: 1500 µg/mL
Drug uptake [8]: 0.035 mg/mL
Cp [9]: 300 µg/mL
half-life [10]: 80 min

N=C(N)c1ccc(CNC(=O)[C@H](CCC2CCNCC2)NC(=O)[C@@H](CCCc2ccccc2)NS(=O)(=O)Cc2ccccc2)cc1
Ki [11]: > 0.13 µM
Ki (Prothrombin [12]): > 0.13 µM
Ki [13]: > 0.13 µM
Ki (Coagulation factor XII): > 0.13 µM
Ki [14]: > 0.13 µM
Ki [15]: > 0.13 µM
Ki (Coagulation factor XI): > 0.13 µM
Ki [16]: > 0.13 µM
Ki (Coagulation factor X [17]): > 0.13 µM

N=C(N)c1ccc(CNC(=O)[C@@H]2CCN2C(=O)[C@H](NCC(=O)O)C2CCCCC2)cc1
Ki (Plasminogen [18]): 0.7 µM
Ki [19]: 0.9 µM
Ki [20]: 6.3 µM

N=C(N)c1ccc(CNC(=O)[C@H](Cc2cccc(CN)c2)NC(=O)[C@@H](CCCc2ccccc2)NS(=O)(=O)Cc2cccc(C(=O)O)c2)cc1
half-life [21]: 20 min
IC50 (Blood): 0.15 µM
half-life [22]: 20 min
concentration [23]: 0.9 µM

NCCCC[C@H](NC(=O)[C@H]1CC[C@H](CN)CC1)C(=O)Nc1ccc(C(=O)c2ccccc2)cc1
IC50 (Plasminogen [24]): 15 µM
IC50 (Plasminogen [25]): 6.1 µM

N=C(N)Nc1ccc(C(=O)Oc2ccc(S(N)(=O)=O)cc2)cc1
Ki (Plasminogen [26]): 0.31 µM

CCOC(=O)c1ccc(OC(=O)CCCCCNC(=N)N)cc1 [GABEXATE]
Ki (Plasminogen [27]): 1.9 µM

CC[C@@H](C)[C@@H](N)C(=O)N[C@@H](Cc1ccccc1)C(=O)N[C@@H](CCCCN)C(=O)Nc1ccc([N+](=O)[O-])cc1
Km (Plasminogen [28]): 30 µM

B1: Plasminogen (Homo sapiens), P00747 (protein)
chain: MEHKEVVLLLLLFLKSGQGEPLDDYVNTQGASLFSVTKKQLGAGSIEECAAKCEEDEEFTCRAFQYHSKEQQCVIMAENRKSSIIIRMRDVVLFEKKVYLSECKTGNGKNYRGTMSKTKNGITCQKWSSTSPHRPRFSPATHPSEGLEENYCRNPDNDPQGPWCYTTDPEKRYDYCDILECEEECMHCSGENYDGKISKTMSGLECQAWDSQSPHAHGYIPSKFPNKNLKKNYCRNPDRELRPWCFTTDPNKRWELCDIPRCTTPPPSSGPTYQCLKGTGENYRGNVAVTVSGHTCQHWSAQTPHTHNRTPENFPCKNLDENYCRNPDGKRAPWCHTTNSQVRWEYCKIPSCDSSPVSTEQLAPTAPPELTPVVQDCYHGDGQSYRGTSSTTTTGKKCQSWSSMTPHRHQKTPENYPNAGLTMNYCRNPDADKGPWCFTTDPSVRWEYCNLKKCSGTEASVVAPPPVVLLPDVETPSEEDCMFGNGKGYRGKRATTVTGTPCQDWAAQEPHRHSIFTPETNPRAGLEKNYCRNPDGDVGGPWCYTTNPRKLYDYCDVPQCAAPSFDCGKPQVEPKKCPGRVVGGCVAHPHSWPWQVSLRTRFGMHFCGGTLISPEWVLTAAHCLEKSPRPSSYKVILGAHQEVNLEPHVQEIEVSRLFLEPTRKDIALLKLSSPAVITDKVIPACLPSPNYVVADRTECFITGWGETQGTFGAGLLKEAQLPVIENKVCNRYEFLNGRVQSTELCAGHLAGGTDSCQGDSGGPLVCFEKDKYILQGVTSWGLGCARPNKPGVYVRVSRFVTWIEGVMRNN
Km [29]: 20 µM
Km [30]: 300 µM
